For one assay, the system named is MDAMB231. The assay is described as follows: MTS cytotoxicity assay, MDAMB231. The following applies: Homo sapiens, MDA-MB-231; MDAMB231, MTS cell viability. Format: cell-based. The procedure:
(§1) Cytotoxicity effect of dissociable curcumin-hyaluronan complex, the curcumin-hyaluronan complex having a substantially non-acid labile covalent bond and free curcumin was detected by MTS (3-(4,5-dimethylthiazol-2yl)-5-(3-[…]-2-(4-sulfophenyl)-2H-tetrazolium) assay. The formazan color intensity was measured directly from 96 well plates in terms of absorbance at 490 nm and 630 nm using a 96-well multi-scanner (MRX Revelation; Dynex Technologies). For calculating cell viability (%) all the appropriate correction was made and the IC50 values were determined from sigmoidal fitting of the data. FIGS. 3-5 represent confocal microscopy images representing the uptake of curcumin and the dissociable complex into the C-13, NIH3T3 and RA-8001 cell lines.
(In general: Tetrazolium assays rely on reduction of a dye to a coloured formazan, in cell work by metabolically active cells.)

Another assay concerns C-13. The assay can be described thus: MTS cytotoxicity assay, C-13. Format: cell-based. The conditions noted are these: Homo sapiens, C13; C-13, MTS cell viability. The procedure: as §1
The test system of a further assay is MCF7 (Dox resistance). The assay is described as follows: MTS cytotoxicity assay, MCF7 (Dox resistance). In kind it is cell-based. The following applies: Homo sapiens, MTS cell viability. How it is done:
as §1

Another assay deals with MCF7. The following applies: from Simon et al., Cancer Lett., (1998), 129, 111; cited from earlier work.
The test system of a further assay is RA-8001. The assay can be described thus: MTS cytotoxicity assay, RA-8001. In kind it is cell-based. The conditions noted are these: Homo sapiens; RA-8001, MTS cell viability. How it is done: as §1
The test system of a further assay is NIH3T3. The assay is described as follows: MTS cytotoxicity assay, NIH3T3. The following applies: Mus musculus; NIH3T3, MTS cell viability. In kind it is cell-based. How it is done: as §1

The structures appear in SMILES notation.

What is called IC50 is the point on the concentration scale where inhibition reaches its midpoint. In the case of `COc1cc(/C=C/C(=O)CC(=O)/C=C/c2ccc(O)c(OC)c2)ccc1O` [Curcumin], the concentration for half-maximal inhibition (IC50) in the assay on MDAMB231 was 27.5 ± 3.36 µM; with C-13 it was 22.2 µM; in the assay on MCF7 (Dox resistance) it was 27.4 ± 0.892 µM; with MCF7, 15 µM; with RA-8001, 11.1 ± 2.3 µM; with NIH3T3, 23.9 ± 3.19 µM.
